Measured values as given in patent US20260231945A1, “NEMATICIDAL COMPOUNDS, THEIR COMPOSITION AND USE THEREOF” (priority 2023, published 2026).

System: not listed separately
Assay: Stability studies: storage at room temperature and under accelerated storage condition (ATS), purity estimated by HPLC
Assay type: physicochemical
Details: Day 14; 25° C. ± 2° C.; properly packed material
Text: The properly packed material was subjected to the conditions mentioned in the table below (Table 5).

purity estimated by HPLC, Day 14 Condition 25° C. ± 2° C.	SMILES
98.80	N=C(N)NCCC[C@H](/N=C/C=C/c1c(O)cccc1F)C(=O)O [Example 3, (E)-N^2-[(2E)-3-(6-fluoro-2-hydroxyphenyl)prop-2-en-1-ylidene]-L-arginine]
99.59	N=C(N)NCCC[C@H](/N=C/C=C/c1ccccc1)C(=O)O [Example 9, (E)-N^2-[(2E)-3-phenylprop-2-en-1-ylidene]-L-arginine]

Same assay, conditions: Day 14; 54° C. ± 2° C. (accelerated storage); properly packed material

purity estimated by HPLC, Day 14 Condition 54° C. ± 2° C.	SMILES
98.79	N=C(N)NCCC[C@H](/N=C/C=C/c1c(O)cccc1F)C(=O)O [Example 3, (E)-N^2-[(2E)-3-(6-fluoro-2-hydroxyphenyl)prop-2-en-1-ylidene]-L-arginine]
99.64	N=C(N)NCCC[C@H](/N=C/C=C/c1ccccc1)C(=O)O [Example 9, (E)-N^2-[(2E)-3-phenylprop-2-en-1-ylidene]-L-arginine]

Same assay, conditions: Day Zero; 25° C. ± 2° C.; properly packed material

purity estimated by HPLC, Day Zero Condition 25° C. ± 2° C.	SMILES
99.23	N=C(N)NCCC[C@H](/N=C/C=C/c1c(O)cccc1F)C(=O)O [Example 3, (E)-N^2-[(2E)-3-(6-fluoro-2-hydroxyphenyl)prop-2-en-1-ylidene]-L-arginine]
99.60	N=C(N)NCCC[C@H](/N=C/C=C/c1ccccc1)C(=O)O [Example 9, (E)-N^2-[(2E)-3-phenylprop-2-en-1-ylidene]-L-arginine]

Same assay, conditions: Day Zero; 54° C. ± 2° C. (accelerated storage); properly packed material

purity estimated by HPLC, Day Zero Condition 54° C. ± 2° C.	SMILES
99.10	N=C(N)NCCC[C@H](/N=C/C=C/c1c(O)cccc1F)C(=O)O [Example 3, (E)-N^2-[(2E)-3-(6-fluoro-2-hydroxyphenyl)prop-2-en-1-ylidene]-L-arginine]
99.63	N=C(N)NCCC[C@H](/N=C/C=C/c1ccccc1)C(=O)O [Example 9, (E)-N^2-[(2E)-3-phenylprop-2-en-1-ylidene]-L-arginine]

System: Root-knot nematodes Meloidogyne spp. juveniles (J2)
Assay: whole plant or invertebrate
Assay type: in vivo
Details: 500 ppm; 70-100 J2 juveniles; 22±2° C., 70±5% RH; dead/inactive counted at 24, 48, 72 and 96 hours (time of rating not stated)
Experimental: The compound to be tested (4 mg) was dissolved in 40 μl of DMSO to make 100,000 PPM concentration stock solution. […] The nematode suspension (250 μl) having 70-100 juveniles (J2) of Root-knot nematodes Meloidogyne spp. pipetted out to each cell of 24 well bioassay plate. Sterile water (1 ml) was pipetted out in fresh 2.5 ml Eppendorf micro-centrifuge tubes. The desired concentration (500 ppm) of the compound was prepared by adding stock solution in 2.5 ml Eppendorf micro-centrifuge tubes. For each treatment 4 replications were maintained. The bioassay plates were incubated at 22±2° C. and 70±5% RH in humidity chambers.

SMILES	% Mortality Rating
N=C(N)NCCCC(N=CC=Cc1ccc(C(F)(F)F)cc1)C(=O)O (stereo not shown) [Example 28]	B (50-69)
CC(C=NC(CCCNC(=N)N)C(=O)O)=Cc1ccc(C(F)(F)F)cc1 (stereo not shown) [Example 29]	B (50-69)
N=C(N)NCCCC(N=CC=Cc1ccccc1C(F)(F)F)C(=O)O (stereo not shown) [Example 30]	B (50-69)
CCC(C=NC(CCCNC(=N)N)C(=O)O)=Cc1ccccc1OC(F)(F)F (stereo not shown) [Example 31]	C (0 to 49)
CCOc1ccc(C=CC=NC(CCCNC(=N)N)C(=O)O)cc1 (stereo not shown) [Example 33]	C (0 to 49)
C=CCc1ccc(C=CC=NC(CCCNC(=N)N)C(=O)O)cc1 (stereo not shown) [Example 34]	B (50-69)
C=CCc1ccc(C=CC=NC(CCCNC(=N)N)C(=O)O)c(O)c1 (stereo not shown) [Example 35]	B (50-69)
C=CCc1cccc(C=CC=NC(CCCNC(=N)N)C(=O)O)c1O (stereo not shown) [Example 36]	A (70-100)
C=CCc1cccc(C=CC=NC(CCCNC(=N)N)C(=O)O)c1OC (stereo not shown) [Example 37]	B (50-69)
C=CCc1ccc(C=CC=NC(CCCNC(=N)N)C(=O)O)c(OC)c1 (stereo not shown) [Example 38]	B (50-69)
N=C(N)NCCCC(N=CC=Cc1ccccn1)C(=O)O (stereo not shown) [Example 40]	A (70-100)
N=C(N)NCCCC(N=CC=Cc1ccncc1)C(=O)O (stereo not shown) [Example 42]	A (70-100)
N=C(N)NCCCC(N=CC=Cc1ccncn1)C(=O)O (stereo not shown) [Example 43]	A (70-100)
N=C(N)NCCCC(N=CC=Cc1cnccn1)C(=O)O (stereo not shown) [Example 44]	B (50-69)
N=C(N)NCCCC(N=CC=Cc1cccnn1)C(=O)O (stereo not shown) [Example 45]	C (0 to 49)
CC(C=NC(CCCNC(=N)N)C(=O)O)=Cc1cccs1 (stereo not shown) [Example 46]	B (50-69)
CCC(C=NC(CCCNC(=N)N)C(=O)O)=Cc1cccs1 (stereo not shown) [Example 47]	B (50-69)

SMILES	% Mortality Rating
CCC(C=NC(CCCNC(=N)N)C(=O)O)=Cc1cscn1 (stereo not shown) [Example 48]	B (50-69)
N=C(N)NCCCC(N=CC=Cc1ccn[nH]1)C(=O)O (stereo not shown) [Example 50]	B (50-69)
N=C(N)NCCCC(N=CC=Cc1cnc[nH]1)C(=O)O (stereo not shown) [Example 51]	B (50-69)
N=C(N)NCCCC(N=CC=Cc1ncc[nH]1)C(=O)O (stereo not shown) [Example 52]	B (50-69)
N=C(N)NCCCC(N=CC=Cc1ncco1)C(=O)O (stereo not shown) [Example 53]	C (0 to 49)
N=C(N)NCCCC(N=CC=Cc1ccc[nH]1)C(=O)O (stereo not shown) [Example 54]	B (50-69)
N=C(N)NCCCC(N=CC=Cc1nc2ccccc2[nH]1)C(=O)O (stereo not shown) [Example 55]	C (0 to 49)
N=C(N)NCCCC(N=CC=Cc1ccc2scnc2c1)C(=O)O (stereo not shown) [Example 57]	A (70-100)
N=C(N)NCCCC(N=CC=Cc1ccc2cc[nH]c2c1)C(=O)O (stereo not shown) [Example 58]	A (70-100)
N=C(N)NCCCC(N=CC=Cc1ccc2c[nH]cc2c1)C(=O)O (stereo not shown) [Example 59]	A (70-100)
N=C(N)NCCCC(N=CC=Cc1ccc2c[nH]cc2c1Cl)C(=O)O (stereo not shown) [Example 60]	B (50-69)
COc1c(C=CC=NC(CCCNC(=N)N)C(=O)O)ccc2[nH]cnc12 (stereo not shown) [Example 61]	C (0 to 49)
N=C(N)NCCCC(N=CC=Cc1ccc2ccoc2c1)C(=O)O (stereo not shown) [Example 62]	B (50-69)
N=C(N)NCCCC(N=CC=Cc1cc2ccccc2o1)C(=O)O (stereo not shown) [Example 63]	A (70-100)
N=C(N)NCCCC(N=CC=Cc1coc2ccccc12)C(=O)O (stereo not shown) [Example 64]	B (50-69)
N=C(N)NCCCC(N=CC=Cc1nc2ccccc2o1)C(=O)O (stereo not shown) [Example 65]	B (50-69)

Same assay, conditions: Meloidogyne, 70-100 J2 juveniles, 22±2° C., 70±5% RH, dead/inactive counted at 24, 48, 72 and 96 hours (time of rating not stated)

SMILES	mortality at 500 ppm [%]
N=C(N)NCCC[C@H](/N=C/C=C/c1ccccc1O)C(=O)O [Example 1, (E)-N^2-[(2E)-3-(2-hydroxyphenyl)prop-2-en-1-ylidene]-L-arginine]	70 to 100
N=C(N)NCCC[C@H](/N=C/C=C/c1ccc(F)cc1O)C(=O)O [Example 2, (E)-N^2-[(2E)-3-(4-fluoro-2-hydroxyphenyl)prop-2-en-1-ylidene]-L-arginine]	50 to 69
N=C(N)NCCC[C@H](/N=C/C=C/c1c(O)cccc1F)C(=O)O [Example 3, (E)-N^2-[(2E)-3-(6-fluoro-2-hydroxyphenyl)prop-2-en-1-ylidene]-L-arginine]	50 to 69
N=C(N)NCCC[C@H](/N=C/C=C/c1ccc(Cl)cc1O)C(=O)O [Example 4, (E)-N^2-[(2E)-3-(4-chloro-2-hydroxyphenyl)prop-2-en-1-ylidene]-L-arginine]	50 to 69
COc1ccc(O)c(/C=C/C=N/[C@@H](CCCNC(=N)N)C(=O)O)c1 [Example 5, (E)-N^2-[(2E)-3-(2-hydroxy-5-methoxyphenyl)prop-2-en-1-ylidene]-L-arginine]	50 to 69
COc1ccccc1/C=C/C=N/[C@@H](CCCNC(=N)N)C(=O)O [Example 6, (E)-N^2-[(2E)-3-(2-methoxyphenyl)prop-2-en-1-ylidene]-L-arginine]	70 to 100
COc1ccc(/C=C/C=N/[C@@H](CCCNC(=N)N)C(=O)O)cc1 [Example 7, (E)-N^2-[(2E)-3-(4-methoxyphenyl)prop-2-en-1-ylidene]-L-arginine]	70 to 100
COc1cc(/C=C/C=N/[C@@H](CCCNC(=N)N)C(=O)O)ccc1OC(C)=O [Example 8, (E)-N^2-{(2E)-3-[4-(acetyloxy)-3-methoxyphenyl]prop-2-en-1-ylidene}-L-arginine]	0 to 49
N=C(N)NCCC[C@H](/N=C/C=C/c1ccccc1)C(=O)O [Example 9, (E)-N^2-[(2E)-3-phenylprop-2-en-1-ylidene]-L-arginine]	70 to 100
CC(/C=N/[C@@H](CCCNC(=N)N)C(=O)O)=C\c1ccccc1 [Example 10, (E)-N^2-[(2E)-2-methyl-3-phenylprop-2-en-1-ylidene]-L-arginine]	70 to 100
CCC(/C=N/[C@@H](CCCNC(=N)N)C(=O)O)=C\c1ccccc1 [Example 11, (E)-N^2-[(2E)-2-benzylidenebutylidene]-L-arginine]	70 to 100
CCCCCC(/C=N/[C@@H](CCCNC(=N)N)C(=O)O)=C\c1ccccc1 [Example 12, (E)-N^2-[(2E)-2-benzylideneheptylidene]-L-arginine]	0 to 49
CCCCCCC(/C=N/[C@@H](CCCNC(=N)N)C(=O)O)=C\c1ccccc1 [Example 13, (E)-N^2-[(2E)-2-benzylideneoctylidene]-L-arginine]	0 to 49
N=C(N)NCCC[C@H](/N=C/C=C/c1ccco1)C(=O)O [Example 14, (E)-N^2-[(2E)-3-(furan-2-yl)prop-2-en-1-ylidene]-L-arginine]	70 to 100
CC(/C=N/[C@@H](CCCNC(=N)N)C(=O)O)=C\c1ccco1 [Example 15, (E)-N^2-[(2E)-3-(furan-2-yl)-2-methylprop-2-en-1-ylidene]-L-arginine]	50 to 69
CCC(/C=N/[C@@H](CCCNC(=N)N)C(=O)O)=C\c1ccco1 [Example 16, (E)-N^2-{(2E)-2-[(furan-2-yl)methylidene]butylidene}-L-arginine]	0 to 49
COc1cc(/C=C/C=N/[C@@H](CCCNC(=N)N)C(=O)O)ccc1O [Example 17, (E)-N^2-[(2E)-3-(4-hydroxy-3-methoxyphenyl)prop-2-en-1-ylidene]-L-arginine]	70 to 100
CC(=O)Oc1ccc(/C=C/C=N/[C@@H](CCCNC(=N)N)C(=O)O)cc1 [Example 18, (E)-N^2-{(2E)-3-[4-(acetyloxy)phenyl]prop-2-en-1-ylidene}-L-arginine]	70 to 100
N=C(N)NCCC[C@H](/N=C/C=C/c1ccccc1OC(=O)c1ccccc1)C(=O)O [Example 19, (E)-N^2-{(2E)-3-[2-(benzoyloxy)phenyl]prop-2-en-1-ylidene}-L-arginine]	0 to 49
N=C(N)NCCC[C@H](/N=C/C=C/c1ccsc1)C(=O)O [Example 21, (E)-N^2-[(2E)-3-(thiophen-3-yl)prop-2-en-1-ylidene]-L-arginine]	70 to 100
N=C(N)NCCC[C@H](/N=C/C=C/c1nc2ccccc2s1)C(=O)O [Example 22, (E)-N^2-[(2E)-3-(1,3-benzothiazol-2-yl)prop-2-en-1-ylidene]-L-arginine]	70 to 100
N=C(N)NCCC[C@H](/N=C/C=C/c1nccs1)C(=O)O [Example 23, (E)-N^2-[(2E)-3-(1,3-thiazol-2-yl)prop-2-en-1-ylidene]-L-arginine]	50 to 69
Cc1ccc(/C=C/C=N/[C@@H](CCCNC(=N)N)C(=O)O)cc1 [Example 25, (E)-N^2-[(2E)-3-(4-methylphenyl)prop-2-en-1-ylidene]-L-arginine]	70 to 100
